Patent US6239130A, “Phosphodiesterase 4-inhibiting diazepinoindolones” (Warner-Lambert Company, priority 1997, dated 2001)
Structures can show the parent of a compound that is named as a salt.

Tested on: PDE4 enzyme of human origin
Experiment: PDE4-inhibiting activity on an enzyme preparation obtained from the U937 cell line
Assay type: biochemical
Procedure: In the case of the PDE4 enzymes, this value is compared with that of rolipram, a specific PDE4 inhibitor. […] Measurement of the enzyme activity of the different types of PDE, and especially of the PDE4 enzymes, is then carried out according to a method adapted from W. J. Thompson, ibidem.

| SMILES | IC50 [nM] |
| --- | --- |
| COc1ccc2c(=O)n(C3N=C(c4ccccc4)c4cc(C)cc5c4N(CC5)C3=O)c(C)nc2c1 (stereo not drawn) [Example 6A, 3-(7-methoxy-2-methyl-4-oxo-4H-quinazolin-3-yl)-9-methyl-1-phenyl-6,7-dihydro-3H-[1,4]-diazepino[6,7,1-hi]indol-4-one] | 133 |
| COc1ccc2nc(C)n(C3N=C(c4ccccc4)c4cc(C)cc5c4N(CC5)C3=O)c(=O)c2c1 (stereo not drawn) [Example 6B, 3-(6-methoxy-2-methyl-4-oxo-4H-quinazolin-3-yl)-9-methyl-1-phenyl-6,7-dihydro-3H-[1,4]-diazepino[6,7,1-hi]indol-4-one] | 1420 |
| Cc1cc2c3c(c1)C(c1ccccc1)=NC(n1c(C)nc4ccc(Br)cc4c1=O)C(=O)N3CC2 (stereo not drawn) [Example 6C, 3-(6-bromo-2-methyl-4-oxo-4H-quinazolin-3-yl)-9-methyl-1-phenyl-6,7-dihydro-3H-[1,4]diazepino-[6,7,1-hi]indol-4-one] | 838 |
| Cc1cc2c3c(c1)C(c1ccccc1)=NC(n1c(C)nc4cccc(CO)c4c1=O)C(=O)N3CC2 (stereo not drawn) [Example 6D, 3-(5-hydroxymethyl-2-methyl-4-oxo-4H-quinazolin-3-yl)-9-methyl-1-phenyl-6,7-dibydro-3H-[1,4]-diazepino[6,7,1-hi]indol-4-one] | 372 |
| Cc1cc2c3c(c1)C(c1ccccc1)=NC(n1c(C)nc4cccc(C(=O)OC(C)(C)C)c4c1=O)C(=O)N3CC2 (stereo not drawn) [Example 6E, tert-Butyl 2-methyl-3-(9-methyl-4-oxo-1-phenyl-3,4,6,7-tetrahydro-[1,4]diazepino[6,7,1-hi]indol-3-yl)-4-oxo-3,4-dihydroquinazoline-5-carboxylate] | > 100000 |
| Cc1cc2c3c(c1)C(c1ccccc1)=NC(n1c(C)nc4cccc(C(=O)O)c4c1=O)C(=O)N3CC2 (stereo not drawn) [Example 6F, 2-methyl-3-(9-methyl-4-oxo-1-phenyl-3,4,6,7-tetrahydro[1,4]diazepino[6,7,1-hi]indol-3-yl)-4-oxo-3,4-dihydroquinazoline-5-carboxylic acid] | > 100000 |
| COC(=O)c1ccc2c(=O)n(C3N=C(c4ccccc4)c4cc(C)cc5c4N(CC5)C3=O)c(C)nc2c1 (stereo not drawn) [Example 7A, Methyl 2-methyl-3-(9-methyl-4-oxo-1-phenyl-3,4,6,7-tetrahydro-[1,4]diazepino[6,7,1-hi]indol-3-yl)-4-oxo-3,4-dihydroquinazoline-7-carboxylate] | 157 |
| Cc1cc2c3c(c1)C(c1ccccc1)=NC(n1c(C)nc4cc(C(=O)O)ccc4c1=O)C(=O)N3CC2 [Example 7C, Salt of 2-methyl-3-(9-methyl-4-oxo-1-phenyl-3,4,6,7-tetrahydro[1,4]diazepino[6,7,1-hi]indol-3-yl)-4-oxo-3,4-dihydroquin azoline-7-carboxylic acid with D-glucamine] | 66 |
| Cc1cc2c3c(c1)C(c1ccccc1)=NC(n1c(C)nc4cc(C(N)=O)ccc4c1=O)C(=O)N3CC2 (stereo not drawn) [Example 8, 2-methyl-3-(9-methyl-4-oxo-1-phenyl-3,4,6,7-tetrahydro-[1,4]diazepino[6,7,1-hi]indol-3-yl)-4-oxo-3,4-dihydroquinazoline-7-carboxamide] | 50 |
| Cc1cc2c3c(c1)C(c1ccccc1)=NC(n1c(C)nc4cc(-c5nnn[nH]5)ccc4c1=O)C(=O)N3CC2 (stereo not drawn) [Example 8B] | 28 |
| CNC(=O)c1ccc2c(=O)n(C3N=C(c4ccccc4)c4cc(C)cc5c4N(CC5)C3=O)c(C)nc2c1 (stereo not drawn) [Example 9, 2-methyl-3-(9-methyl-4-oxo-1-phenyl-3,4,6,7-tetrahydro-[1,4]diazepino[6,7,1-hi]indol-3-yl)-4-oxo-3,4-dihydroquinazoline-7-(N-methylcarboxamide)] | 63 |
| Cc1cc2c3c(c1)C(c1ccccc1)=NC(n1c(C)nc4cc(C(=O)N(C)C)ccc4c1=O)C(=O)N3CC2 (stereo not drawn) [Example 9A, 2-methyl-3-(9-methyl-4-oxo-1-phenyl-3,4,6,7-tetrahydro[1,4]diazepino[6,7,1-hi]indol-3-yl)-4-oxo-3,4dihydroquinazoline-7-N-dimethylearboxamide] | 122 |
| Cc1cc2c3c(c1)C(c1ccccc1)=NC(n1c(C)nc4cc(C(=O)NCCN5CCOCC5)ccc4c1=O)C(=O)N3CC2 (stereo not drawn) [Example 9B, 2-methyl-3-(9-methyl-4-oxo-1-phenyl-3,4,6,7-tetrahydro[1,4]diazepino[6,7,1-hi]indol-3-yl) 4-oxo-3,4-dihydroquinazoline-7-carboxylic acid (2-morpholin-4-yl-ethyl)amide] | 95 |
| Cc1cc2c3c(c1)C(c1ccccc1)=NC(n1c(C)nc4cc(C(=O)NCCCN5CCOCC5)ccc4c1=O)C(=O)N3CC2 (stereo not drawn) [Example 9C] | 69 |
| Cc1cc2c3c(c1)C(c1ccccc1)=NC(n1c(C)nc4cc(C(=O)NCCN)ccc4c1=O)C(=O)N3CC2 (stereo not drawn) [Example 9D, 2-methyl-3-(9-methyl-4-oxo-1-phenyl-3,4,6,7-tetrahydro[1,4]diazepino[6,7,1-hi]indol-3-yl)-4-oxo-3,4-dihydroquinazoline-7-(2-amino)ethylcarboxamide] | 119 |
| Cc1cc2c3c(c1)C(c1ccccc1)=NC(n1c(C)nc4cc(C(=O)N5CCN(CCO)CC5)ccc4c1=O)C(=O)N3CC2 (stereo not drawn) [Example 9F, 3-{7-[4-(2-hydroxyethyl)piperazine-1-carbonyl]-2-methyl-4-oxo-4H-quinazolin-3-yl}-9-methyl-1-phenyl-6,7-dihydro-3H-[1,4]diazepino[6,7,1-hi]indol-4-one] | 192 |
| Cc1cc2c3c(c1)C(c1ccccc1)=NC(n1c(C)nc4cc(C(=O)N5CCN(CCO)CC5)ccc4c1=O)C(=O)N3CC2 (stereo not drawn) [Example 9G] | 137 |
| COC(=O)[C@H](CCCCN)NC(=O)c1ccc2c(=O)n(C3N=C(c4ccccc4)c4cc(C)cc5c4N(CC5)C3=O)c(C)nc2c1 (stereo partly drawn) [Example 9I, Methyl (2S)-6-amino-2-{[2-methyl-3-(9-methyl-4-oxo-1-phenyl-3,4,6,7-tetrahydro-[1,4]diazepino[6,7,1-hi]indol-3-yl)-4-oxo-3,4-dihydroquinazolin-7-carbonyl]amino}hexanoate] | 119 |
| Cc1cc2c3c(c1)C(c1ccccc1)=NC(n1c(C)nc4cc(C(=O)OCCN5CCOCC5)ccc4c1=O)C(=O)N3CC2 (stereo not drawn) [Example 10, 2-(4-morpholinyl)ethyl 2-methyl-3-(9-methyl-4-oxo-1-phenyl-3,4,6,7-tetrahydro-[1,4]diazepino-[6,7,1-hi]indol-3-yl)-4-oxo-3,4-dihydroquinazoline-7-carboxylate] | 183 |
| CC(=O)OCCOC(=O)c1ccc2c(=O)n(C3N=C(c4ccccc4)c4cc(C)cc5c4N(CC5)C3=O)c(C)nc2c1 (stereo not drawn) [Example 10A, 2-acetoxyethyl 2-methyl-3-(9-methyl-4-oxo-1-phenyl-3,4,6,7-tetrahydro[1,4]diazepino[6,7,1-hi]indol-3-yl)-4-oxo-3,4dihydroquinazoline-7-carboxylate] | 108 |
| COCCOC(=O)c1ccc2c(=O)n(C3N=C(c4ccccc4)c4cc(C)cc5c4N(CC5)C3=O)c(C)nc2c1 (stereo not drawn) [Example 10B, 2-Methoxyethyl 2-methyl-3-(9-methyl-4-oxo-1-phenyl-3,4,6,7-tetrahydro[1,4]diazepino[6,7,1-hi]indol-3-yl)-4-oxo-3,4-dihydroquinazoline-7-carboxylate] | 155 |
| Cc1cc2c3c(c1)C(c1ccccc1)=NC(n1c(C)nc4cc(C(=O)OCCO)ccc4c1=O)C(=O)N3CC2 (stereo not drawn) [Example 10C, 2-Hydroxyethyl 2-methyl-3-(9-methyl-4-oxo-1-phenyl-3,4,6,7-tetrahydro[1,4]diazepino[6,7,1-hi]indol-3-yl)-4-oxo-3,4-dihydroquinazoline-7-carboxylate] | 81 |
| Cc1cc2c3c(c1)C(c1ccccc1)=NC(n1c(C)nc4cc(C(=O)OC[C@@H](O)CO)ccc4c1=O)C(=O)N3CC2 (stereo partly drawn) [Example 10D, 1-(2S)-glyceryl 2-methyl-3-(9-methyl-4-oxo-1-phenyl-3,4,6,7-tetrahydro[1,4]diazepino[6,7,1-hi]indol-3-yl)-4-oxo-3,4-dihydroquinazoline-7-carboxylate] | 42 |
| Cc1cc2c3c(c1)C(c1ccccc1)=NC(n1c(C)nc4cc(C(=O)OCC(O)CN5CCOCC5)ccc4c1=O)C(=O)N3CC2 (stereo not drawn) [Example 10E, 2-hydroxy-3-morpholin-4-ylpropyl 2-methyl-3-(9-methyl-4-oxo-1-phenyl-3,4,6,7-tetrahydro[1,4]diazepino[6,7,1-hi]indol-3-yl)-4-oxo-3,4-dihydroquinazoline-7-carboxylate] | 75 |
| Cc1cc2c3c(c1)C(c1ccccc1)=NC(n1c(C)nc4cc(CO)ccc4c1=O)C(=O)N3CC2 (stereo not drawn) [Example 11, 3-(7-hydroxymethyl-2-methyl-4-oxo-4H-quinazolin-3-yl)-9-methyl-1-phenyl-6,7-dihydro-3H-[1,4]diazepino[6,7,1-hi]indol-4-one] | 79 |
| Cc1cc2c3c(c1)C(c1ccccc1)=N[C@@H](n1c(C)nc4cccc(F)c4c1=O)C(=O)N3CC2 [Example 12] | 88 |
| Cc1cc2c3c(c1)C(c1ccccc1)=NC(n1c(C)nc4cccc(Cl)c4c1=O)C(=O)N3CC2 (stereo not drawn) [Example 13, 3-(5-chloro-2-methyl-4-oxo-4H-quinazolin-3-yl)-9-methyl-1-phenyl-6,7-dihydro-3H-[1,4]diazepino-[6,7,1-hi]indol-4-one] | 83 |
| CCOC(=O)c1nc2ccccc2c(=O)n1C1N=C(c2ccccc2)c2cc(C)cc3c2N(CC3)C1=O (stereo not drawn) [Example 14, ethyl 3-(9-methyl-4-oxo-1-phenyl-3,4,6,7-tetrahydro-[1,4]diazepino[6,7,1-hi]indol-3-yl)-4-oxo-3,4-dihydroquinazoline-2-carboxylate] | 310 |
| CCOC(=O)c1nc2cccc(Cl)c2c(=O)n1C1N=C(c2ccccc2)c2cc(C)cc3c2N(CC3)C1=O (stereo not drawn) [Example 15, Ethyl 5-chloro-3-(9-methyl-4-oxo-1-phenyl-3,4,6,7-tetrahydro-[1,4]diazepino[6,7,1-hi]indol-3-yl)-4oxo-3,4-dihydroquinazoline-2-carboxylate] | 82 |
| CCOC(=O)Cc1nc2ccccc2c(=O)n1C1N=C(c2ccccc2)c2cc(C)cc3c2N(CC3)C1=O (stereo not drawn) [Example 16, Ethyl [3-(9-methyl-4-oxo-1-phenyl-3,4,6,7-tetrahydro-[1,4]diazepino[6,7,1-hi]indol-3-yl)-4-oxo-3,4-dihydro-2-quinazolinyl]acetate] | 260 |
